# Source: ChEMBL document CHEMBL1201862, “PubChem BioAssay data set” (2004)
# The source made the active and inactive calls.
# Experiments:
# [1] = target: T1, Calpain-2 catalytic subunit (Sus scrofa, UniProt P43367); test: m-calpain protease blockers, concentration series – biochemical, fluorogenic peptide substrate, dose response (AID 1420); format: functional
# T1 sequence (P43367 whole entry): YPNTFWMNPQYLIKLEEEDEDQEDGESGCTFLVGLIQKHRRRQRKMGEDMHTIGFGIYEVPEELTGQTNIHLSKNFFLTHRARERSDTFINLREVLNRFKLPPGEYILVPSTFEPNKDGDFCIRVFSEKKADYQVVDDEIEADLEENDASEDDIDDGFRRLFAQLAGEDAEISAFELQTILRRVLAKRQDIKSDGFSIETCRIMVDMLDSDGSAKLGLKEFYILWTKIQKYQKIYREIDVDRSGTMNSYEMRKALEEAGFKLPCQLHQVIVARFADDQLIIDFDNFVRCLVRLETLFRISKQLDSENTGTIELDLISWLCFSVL
# [2] = target: T2, Heat shock factor protein 1 (Mus musculus, UniProt P38532); test: decrease of HSF1-responsive luciferase luminescence – cell-based, NIH3T3, dose retest, confirmation (AID 2382); format: functional;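 note: NIH3T3 fibroblasts with HSF1-driven luciferase reporter stressed by proteasome inhibitor MG132; luminescence from HSF1-driven luciferase expression after 8 hours of MG132 stress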
# T2 sequence (P38532 whole entry): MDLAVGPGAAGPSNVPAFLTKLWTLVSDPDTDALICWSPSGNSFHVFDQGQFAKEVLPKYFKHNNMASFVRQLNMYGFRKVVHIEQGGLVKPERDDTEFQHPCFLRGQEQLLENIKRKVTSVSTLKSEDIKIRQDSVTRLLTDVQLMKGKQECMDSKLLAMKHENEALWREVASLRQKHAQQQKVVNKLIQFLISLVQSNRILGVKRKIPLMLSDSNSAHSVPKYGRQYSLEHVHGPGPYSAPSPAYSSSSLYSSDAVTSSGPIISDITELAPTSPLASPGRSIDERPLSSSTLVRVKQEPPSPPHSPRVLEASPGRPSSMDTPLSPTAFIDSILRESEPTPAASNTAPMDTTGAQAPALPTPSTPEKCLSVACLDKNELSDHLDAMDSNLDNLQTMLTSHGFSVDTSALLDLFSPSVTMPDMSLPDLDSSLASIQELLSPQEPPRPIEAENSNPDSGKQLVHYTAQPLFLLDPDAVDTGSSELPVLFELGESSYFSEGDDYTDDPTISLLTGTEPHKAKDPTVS
# [3] = Luminescence Cell-Based Dose Retest to Confirm Inhibitors of Cancer Stem Cells. [Related pubchem assays (depositor defined):AID2717, AID2721]; format: functional; conditions: Homo sapiens
# [4] = viability of uninfected HEp-2 cells – cell-based, HTS, cytotoxicity control for RSV inhibitor project, dose response (AID 2410); format: functional; conditions: human respiratory syncytial virus
# [5] = target: Luciferin 4-monooxygenase (Photinus pyralis, UniProt P08659); test: inhibition of purified Photinus pyralis luciferase – biochemical, luminescence, dose response (AID 1891)
# [6] = Luminescence Cell-Based Dose Confirmation HTS to Identify Inhibitors of Platelet Dense Granule Release. [Related pubchem assays: 1663 (Primary HTS), 1678 (Summary of Project)]; format: functional
# [7] = target: T3, Protein skinhead-1 (Caenorhabditis elegans, UniProt P34707); format: functional
# T3 sequence (P34707 whole entry): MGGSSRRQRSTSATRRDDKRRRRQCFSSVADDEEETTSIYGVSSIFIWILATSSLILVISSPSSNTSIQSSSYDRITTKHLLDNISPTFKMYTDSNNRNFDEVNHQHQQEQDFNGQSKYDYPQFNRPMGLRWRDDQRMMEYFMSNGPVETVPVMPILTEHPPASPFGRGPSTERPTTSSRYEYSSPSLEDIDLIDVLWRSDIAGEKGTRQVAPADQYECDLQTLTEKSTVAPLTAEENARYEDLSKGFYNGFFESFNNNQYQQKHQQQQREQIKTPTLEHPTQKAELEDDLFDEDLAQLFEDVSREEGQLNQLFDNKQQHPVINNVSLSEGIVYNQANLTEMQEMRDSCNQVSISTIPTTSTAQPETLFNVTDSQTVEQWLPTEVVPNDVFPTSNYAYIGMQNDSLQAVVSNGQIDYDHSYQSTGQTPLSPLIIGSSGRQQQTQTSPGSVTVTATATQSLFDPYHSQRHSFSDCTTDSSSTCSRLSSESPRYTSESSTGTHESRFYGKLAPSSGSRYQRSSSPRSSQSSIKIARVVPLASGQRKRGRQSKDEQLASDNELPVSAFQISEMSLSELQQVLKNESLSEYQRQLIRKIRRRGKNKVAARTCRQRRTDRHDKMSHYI
# [8] = loss of viability in HepG2 cells – cell-based, CellTiter-Glo, cherry-picked, cytotoxicity control for Shn3 inhibitor project, dose response (AID 624134); format: functional
# [9] = reduction of Shn3 3'UTR-driven luciferase in osteoblasts – cell-based, Clone20 osteoblasts, firefly luciferase, cherry-picked, dose response (AID 624132); format: functional;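 note: firefly luciferase luminescence from reporter carrying the Shn3 3'UTR in osteoblasts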
# [10] = non-specific 3'UTR reporter inhibition in Clone20-Shn3RL – cell-based, Renilla luciferase, cherry-picked, counter-screen for Shn3 inhibitor project, dose response (AID 624133); format: functional
# [11] = target: T4, Rac GTPase-activating protein 1 (Homo sapiens, UniProt Q9H0H5); test: blockers of MgcRacGAP-driven Rac1 GTP hydrolysis – biochemical, ADP Hunter fluorescence, primary and confirmatory, confirmation (AID 624330); format: functional
# T4 sequence (Q9H0H5 whole entry): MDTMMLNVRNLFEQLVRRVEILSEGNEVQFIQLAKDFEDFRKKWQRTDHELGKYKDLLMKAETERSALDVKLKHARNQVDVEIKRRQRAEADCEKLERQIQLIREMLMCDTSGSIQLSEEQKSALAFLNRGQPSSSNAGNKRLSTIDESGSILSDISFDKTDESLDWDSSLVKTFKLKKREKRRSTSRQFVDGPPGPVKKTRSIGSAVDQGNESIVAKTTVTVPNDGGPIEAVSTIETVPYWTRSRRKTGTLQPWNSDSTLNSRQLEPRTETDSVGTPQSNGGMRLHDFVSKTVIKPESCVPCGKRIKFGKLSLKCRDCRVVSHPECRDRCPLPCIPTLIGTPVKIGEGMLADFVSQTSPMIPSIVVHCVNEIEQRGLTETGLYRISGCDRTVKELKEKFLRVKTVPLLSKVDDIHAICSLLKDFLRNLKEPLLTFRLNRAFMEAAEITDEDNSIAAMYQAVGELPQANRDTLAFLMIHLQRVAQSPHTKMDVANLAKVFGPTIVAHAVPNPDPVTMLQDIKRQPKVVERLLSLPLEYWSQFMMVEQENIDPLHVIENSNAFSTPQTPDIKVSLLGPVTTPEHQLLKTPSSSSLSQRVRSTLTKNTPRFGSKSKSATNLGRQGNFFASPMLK
# [12] = Luminescence Cell-Based Dose Confirmation HTS to Identify Activators of 5'UTR Stem-Loop Driven Alpha-Synuclein mRNA Translation in H4 Neuroglioblastoma Cells. [Related pubchem assays: 1829 (Project Summary), 1814 (Primary HTS)]; format: functional
# [13] = test system: H4; test: Luminescence Cell-Based Dose Response HTS to Identify Activators of 5'UTR Stem-Loop Driven Prion Protein mRNA Translation in H4 Neuroglioblastoma Cells. [Related pubchem assays: 1829 (Project Summary), 1814 (Primary HTS)]; format: functional; conditions: Homo sapiens
# [14] = Luminescence Cell-Based Dose Response HTS to Identify Activators of Luciferase Translation or Activity in H4 […] Cells. [Related pubchem assays: 1829 (Project Summary), 1814 (Primary HTS)]; format: functional
# [15] = test system: Streptococcus sp. 'group A'; test: Streptococcus pyogenes SK(-)GAS viability under kanamycin – luminescence, BacTiterGlo, confirmation, counter-screen for streptokinase expression inhibitor project, dose response (AID 1900); format: functional, organism-based
# [16] = test system: Streptococcus; test: GAS UMAA2166 growth inhibition – luminescence, BacTiterGlo, counter-screen for streptokinase expression inhibitor project, dose response (AID 1915); format: functional, organism-based;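 note: potency for reduction of bacterial viability or growth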
# [17] = target: T5, Streptokinase A (Streptococcus pyogenes serotype M1, UniProt P10520); test: viability-normalized secreted streptokinase activity reduction – plasminogen activation absorbance, OD405, dose response (AID 1914); format: functional, Streptococcus pyogenes M1 GAS;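 note: secreted streptokinase activity via plasminogen activation per viability signal from cell pellet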
# T5 sequence (P10520 whole entry): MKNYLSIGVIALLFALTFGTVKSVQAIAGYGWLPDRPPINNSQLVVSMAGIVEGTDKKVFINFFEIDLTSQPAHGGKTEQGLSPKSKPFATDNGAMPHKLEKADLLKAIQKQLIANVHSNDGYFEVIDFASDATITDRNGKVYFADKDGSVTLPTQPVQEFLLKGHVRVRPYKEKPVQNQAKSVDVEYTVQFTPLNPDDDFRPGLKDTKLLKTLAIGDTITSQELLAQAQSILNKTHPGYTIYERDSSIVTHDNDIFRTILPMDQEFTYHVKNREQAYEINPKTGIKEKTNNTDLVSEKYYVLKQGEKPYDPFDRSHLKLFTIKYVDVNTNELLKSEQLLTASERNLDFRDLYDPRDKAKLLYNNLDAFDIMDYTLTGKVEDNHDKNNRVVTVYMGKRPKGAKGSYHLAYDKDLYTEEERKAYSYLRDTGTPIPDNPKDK
# Luciferin 4-monooxygenase, sequence (P08659 whole entry): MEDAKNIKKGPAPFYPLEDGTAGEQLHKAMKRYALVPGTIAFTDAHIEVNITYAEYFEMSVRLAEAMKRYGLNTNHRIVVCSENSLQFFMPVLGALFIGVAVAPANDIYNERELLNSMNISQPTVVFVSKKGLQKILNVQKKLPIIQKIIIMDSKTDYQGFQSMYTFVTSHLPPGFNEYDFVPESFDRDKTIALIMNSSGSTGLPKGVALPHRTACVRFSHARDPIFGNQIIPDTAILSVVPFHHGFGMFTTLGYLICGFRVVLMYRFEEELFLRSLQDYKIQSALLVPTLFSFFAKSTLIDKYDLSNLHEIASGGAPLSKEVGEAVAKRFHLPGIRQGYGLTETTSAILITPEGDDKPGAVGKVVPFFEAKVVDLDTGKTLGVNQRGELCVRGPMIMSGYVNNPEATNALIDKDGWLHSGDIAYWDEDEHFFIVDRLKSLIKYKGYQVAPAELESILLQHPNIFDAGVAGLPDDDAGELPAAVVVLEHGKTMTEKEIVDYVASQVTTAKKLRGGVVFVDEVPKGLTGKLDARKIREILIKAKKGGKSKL
smiles,measurement,setting,value
COc1ccccc1/C=N/NC(=S)NCc1ccco1,IC50,[1],8.4 µM (active)
Cc1ccc(NC(=O)Cc2ccc(-n3cccc3)cc2)c(C)c1,EC50,[2],> 195 µM (not active)
COc1ccc(-n2c(C)c(C(C)=O)c(C(C)=O)c2C)cc1,EC50,[2],> 195 µM (not active)
Cc1cc(C)c2oc(C(=O)Nc3ccc(S(=O)(=O)Nc4nccc(C)n4)cc3)cc(=O)c2c1,EC50,[2],> 195 µM (not active)
Cc1ccc(/C=C\c2[nH]ccc3c4ccccc4nc2-3)cc1,AC50,[3],17.4 µM (active)
same,CC50,[4],28.9 µM (active)
O=C(CN1CCN(C(=O)c2ccccc2)CC1)Nc1ncc(Br)cc1Br,EC50,[2],> 195 µM (not active)
COc1ccc(CNC(=O)CCCn2nc([N+](=O)[O-])cc2C)cc1,IC50,[1],< 0.4 µM (not active)
CC(OC(=O)c1nsc(Cl)c1Cl)C(=O)NCc1ccc2c(c1)OCO2 (stereo unspecified),EC50,[2],> 195 µM (not active)
O=C1Nc2ccccc2C1=Nc1ccc(-c2nnc3n2CCCCC3)cc1,EC50,[5],> 112 µM (not active)
same,EC50,[6],> 112 µM (not active)
Oc1ccc(N=Nc2ccc(Br)cc2)c(O)c1,AC50,[3],4.2 µM (active)
O=C(Cc1c[nH]c2ccccc12)N/N=C/c1ccccc1O,EC50,[5],> 112 µM (not active)
same,EC50,[6],> 112 µM (not active)
O=[N+]([O-])c1ccc(OC/C=C2\Oc3ccc([N+](=O)[O-])cc3C2N2CCOCC2)cc1 (stereo unspecified),IC50,[7],> 100 µM (inactive)
same,IC50,[1],6.21 µM (not active)
COC(=O)c1ccc(S(=O)(=O)N2CCCN(Cc3ccccc3)CC2)n1C,AC50,[8],69.6 µM (active)
same,AC50,[9],51.1 µM (active)
same,AC50,[10],28 µM (active)
O=C(Nc1ccccc1)C1=C[C@@H](c2ccc(C(F)(F)F)cc2)C[C@@H](OCc2ccc(CO)cc2)O1,AC50,[3],5.5 µM (active)
O=C(Nc1cccc2oc(=O)ccc12)c1ccc([N+](=O)[O-])cc1[N+](=O)[O-],IC50,[1],5.83 µM (active)
O=S(=O)(c1cccs1)N1CCN(CCOc2ccc(Cl)cc2)CC1,AC50,[8],37.6 µM (active)
same,AC50,[9],13.8 µM (active)
same,AC50,[10],23.9 µM (active)
COc1cc(Cl)c(C)cc1NC(=O)CNC(C)c1ccccc1OC (stereo unspecified),IC50,[1],> 50 µM (not active)
CCN(CC)c1ccc(/C=C2/SC(=O)N(C(C)C)C2=O)o1,AC50,[8],58.9 µM (active)
same,AC50,[9],3.46 µM (active)
same,AC50,[10],7.5 µM (active)
same,IC50,[11],48.2 µM (active)
CC(=O)NCc1cn2c(C)csc2n1,EC50,[5],> 112 µM (not active)
same,EC50,[6],> 112 µM (not active)
COc1ccc(Cn2nnnc2CN2CCc3ccccc3C2)cc1,EC50,[2],> 195 µM (not active)
N#Cc1nc(COc2ccccc2)oc1N1CCN(c2cccc(Cl)c2)CC1,IC50,[1],34.3 µM (not active)
O=C(NCC(=O)N1CCN(c2ccccc2O)CC1)c1ccc(Br)o1,EC50,[2],> 195 µM (not active)
COc1ccc(N(CC(=O)N/N=C/c2ccc(-c3ccc([N+](=O)[O-])cc3)o2)S(=O)(=O)c2ccc(C)cc2)cc1,EC50,[5],> 112 µM (not active)
same,EC50,[6],> 112 µM (not active)
Cc1ccc(C(=O)N/C(=C\c2cccc([N+](=O)[O-])c2)C(=O)NCc2ccncc2)cc1,EC50,[5],> 112 µM (not active)
same,EC50,[6],38.4 µM (active)
Cc1ccc(-c2nc(NCc3ccco3)c3ccccc3n2)cc1,AC50,[3],9.72 µM (active)
same,IC50,[1],7.69 µM (not active)
CCOCC(=O)Nc1nnc(C2CCCCC2)s1,EC50,[12],> 120 µM (not active)
same,EC50,[13],> 120 µM (not active)
same,EC50,[14],83 µM (active)
COc1cc(F)c(C2=CC(=O)C[C@H](c3ccc(Cl)cc3)C2)cc1F,AC50,[3],1.43 µM (active)
CC1(C)c2ccccc2-n2c1cc1oc(=O)cc(O)c1c2=O,EC50,[15],> 150 µM (not active)
same,EC50,[16],> 150 µM (not active)
same,EC50,[17],> 150 µM (not active)
same,IC50,[1],1.02 µM (not active)
Cc1ccc(-c2nnc(SCC(=O)Nc3nccs3)n2N)cc1,EC50,[2],> 195 µM (not active)
COC(=O)C1(Cc2ccccc2)NC(c2ccccc2C)C2C(=O)N(c3ccc4c(c3)OCO4)C(=O)C21 (stereo unspecified),EC50,[2],> 195 µM (not active)
COc1cc(/C=C2/CCC/C(=C\c3cc(O)c(OC)c(Cl)c3)C2=O)cc(Cl)c1O,AC50,[3],0.629 µM (active)
